Test results reported in patent US20190343908A1, “Therapeutic Combination for the Treatment of Cancer” (Nerium Biotechnology Inc., priority 2011, published 2019).

Assays:
[1] = test system: 22Rv1 (human prostate cancer); assay: Methyl-Tetrazolium (MTT) viability assay, 22Rv1; format: cell-based; conditions: for Average absorbance, MTT 24 h / Average absorbance, MTT 48 h / Average absorbance, MTT 72 h: 22Rv1 Run 3
Text: (§1) Three different viability assays were chosen to complement each other and yielded results dependent on concentration and cell line: the Methyl Tetrazolium dye assay, the Sulforhodamine B fluorescent dye assay, and the Crystal Violet dye assay.
The Methyl-Tetrazolium dye assay measures the activity of enzymes in mitochondria. The dye precursor is taken up by cells, where it undergoes reduction to the purple formazan. It measures only the mitochondrial activity and, thus, it is not always a reliable indication of whether the cells themselves are alive or dead, since even a recently dead cell has […] enzyme activity in mitochondria. Intracellular glucose concentration, pH, and time before assay all affect the measurements.
(§2) The Methyl Tetrazolium, Sulforhodamine B, and Crystal Violet assays were used to assess cell viabilities. The incubation times were 24 hours, 48 hours, and 72 hours. The Nerium oleander extract Anvirzel™ (a hot water extract of oleander obtained from Salud Integral, Honduras) was tested in concentrations ranging from 0.01 ng/mL to 10 ng/mL.
(§3) Cells were detached by trypsinization (Trypsin-0.25% EDTA, Invitrogen, 25200-072) during the logarithmic phase of culture growth and plated in 96-well plates (18.000 cells/well) (Corning, Costar 359) in a final volume of 200 μl of medium per well. […] The absorbance was measured after 24 hours, 48 hours, and 72 hours of incubation.
For the Methyl-Tetrazolium assay, the dye (Sigma, M2128; 5 mg/mL, diluted in phosphate-buffered saline) was added to each well and plates were incubated for 3 hours at 37° C. After the end of the incubation period, the medium was discarded and the cells were rinsed with phosphate-buffered saline. Finally, the formazan crystals were dissolved in dimethylsulphoxide (Sigma, D4540).
(§4) The optical density of each plate was measured on a μQuant spectrophotometer and the data were analyzed with Gen5 software (μQuant Biomolecular Spectrophotometer MQX200 and Gen5™ Microplate Data Collection & Analysis software, BioTek® Instruments. Inc, April 2008). Absorbance was measured at 570 nm for all assays and a second wavelength was measured in order to subtract noise. For the Methyl-Tetrazolium assay this second wavelength was 630 nm and for the Sulforhodamine B and Crystal Violet assays it was 690 nm.

[2] = test system: MDA-MB 231 (human breast cancer); assay: Sulforhodamine B viability assay, MDA-MB 231; format: cell-based; conditions: for SRB 24 h / SRB 48 h / SRB 72 h: Run 3 average
Text: as §1
The Sulforhodamine B and Crystal Violet assays provide information about protein and were used to complement the Methyl-Tetrazolium dye assay. […] It is used for the quantification of cellular proteins of cultured cells. The assay using Crystal Violet, a dye that binds electrostatically to proteins and stains DNA, provides a reliable, simple assay for measuring viability of cells.
as §2, §3
For the Sulforhodamine B assay, 96-well plates were fixed by 10% trichloroacetic acid (Fluka, 91228) and were incubated at 4° C. for 1 hour. Afterwards, plates were rinsed with water and cells were stained with 0.4% Sulforhodamine B (Sigma, 341738), dissolved in 1% acetic acid (Carlo Ebra, 401422) for 15 minutes at room temperature (RT). The unbound stain was washed twice with 1% acetic acid. Finally, 10 mM Tris Buffer pH 10.5 (Sigma, T6791) was added to dissolve the dye.
as §4

N.N.[Cl][Pt][Cl] [cisplatin]
MTT 24 h Average ([1]; 22Rv1 Run 1, 0.1 μg/ml CDDP): 0.042
MTT 48 h Average ([1]; 22Rv1 Run 1, 0.1 μg/ml CDDP): 0.141
MTT 72 h Average ([1]; 22Rv1 Run 1, 0.1 μg/ml CDDP): 0.168
MTT 24 h Average ([1]; 22Rv1 Run 1, 1 μg/ml CDDP): 0.013
MTT 48 h Average ([1]; 22Rv1 Run 1, 1 μg/ml CDDP): 0.013
MTT 72 h Average ([1]; 22Rv1 Run 1, 1 μg/ml CDDP): 0.015
MTT 24 h Average ([1]; 22Rv1 Run 1, 10 μg/ml CDDP): 0.033
MTT 48 h Average ([1]; 22Rv1 Run 1, 10 μg/ml CDDP): 0.013
MTT 72 h Average ([1]; 22Rv1 Run 1, 10 μg/ml CDDP): 0.01
MTT 24 h Average ([1]; 22Rv1 Run 1, 100 μg/ml CDDP): 0.011
MTT 48 h Average ([1]; 22Rv1 Run 1, 100 μg/ml CDDP): 0.008
MTT 72 h Average ([1]; 22Rv1 Run 1, 100 μg/ml CDDP): 0.009
MTT 24 h Average ([1]; 22Rv1 Run 2, 0.1 μg/ml CDDP): 0.077
MTT 48 h Average ([1]; 22Rv1 Run 2, 0.1 μg/ml CDDP): 0.172
MTT 72 h Average ([1]; 22Rv1 Run 2, 0.1 μg/ml CDDP): 0.29
MTT 24 h Average ([1]; 22Rv1 Run 2, 1 μg/ml CDDP): 0.011
MTT 48 h Average ([1]; 22Rv1 Run 2, 1 μg/ml CDDP): 0.014
MTT 72 h Average ([1]; 22Rv1 Run 2, 1 μg/ml CDDP): 0.016
MTT 24 h Average ([1]; 22Rv1 Run 2, 10 μg/ml CDDP): 0.019
MTT 48 h Average ([1]; 22Rv1 Run 2, 10 μg/ml CDDP): 0.016
MTT 72 h Average ([1]; 22Rv1 Run 2, 10 μg/ml CDDP): 0.013
MTT 24 h Average ([1]; 22Rv1 Run 2, 100 μg/ml CDDP): 0.009
MTT 48 h Average ([1]; 22Rv1 Run 2, 100 μg/ml CDDP): 0.008
MTT 72 h Average ([1]; 22Rv1 Run 2, 100 μg/ml CDDP): 0.008
Average absorbance, MTT 24 h ([1]; 0.1 μg/ml CDDP): 0.08
Average absorbance, MTT 48 h ([1]; 0.1 μg/ml CDDP): 0.135
Average absorbance, MTT 72 h ([1]; 0.1 μg/ml CDDP): 0.128
Average absorbance, MTT 24 h ([1]; 1 μg/ml CDDP): 0.015
Average absorbance, MTT 48 h ([1]; 1 μg/ml CDDP): 0.016
Average absorbance, MTT 72 h ([1]; 1 μg/ml CDDP): 0.015
Average absorbance, MTT 24 h ([1]; 10 μg/ml CDDP): 0.023
Average absorbance, MTT 48 h ([1]; 10 μg/ml CDDP): 0.017
Average absorbance, MTT 72 h ([1]; 10 μg/ml CDDP): 0.013
Average absorbance, MTT 24 h ([1]; 100 μg/ml CDDP): 0.011
Average absorbance, MTT 48 h ([1]; 100 μg/ml CDDP): 0.011
Average absorbance, MTT 72 h ([1]; 100 μg/ml CDDP): 0.011
SRB 24 h Average ([2]; Run 1, 0.1 μg/ml CDDP): 1.792
SRB 48 h Average ([2]; Run 1, 0.1 μg/ml CDDP): 2.678
SRB 72 h Average ([2]; Run 1, 0.1 μg/ml CDDP): 2.873
SRB 24 h Average ([2]; Run 1, 1 μg/ml CDDP): 1.395
SRB 48 h Average ([2]; Run 1, 1 μg/ml CDDP): 2.254
SRB 72 h Average ([2]; Run 1, 1 μg/ml CDDP): 2.928
SRB 24 h Average ([2]; Run 1, 10 μg/ml CDDP): 1.785
SRB 48 h Average ([2]; Run 1, 10 μg/ml CDDP): 2.489
SRB 72 h Average ([2]; Run 1, 10 μg/ml CDDP): 2.962
SRB 24 h Average ([2]; Run 1, 100 μg/ml CDDP): 1.752
SRB 48 h Average ([2]; Run 1, 100 μg/ml CDDP): 2.457
SRB 72 h Average ([2]; Run 1, 100 μg/ml CDDP): 2.852
SRB 24 h Average ([2]; Run 2, 0.1 μg/ml CDDP): 1.576
SRB 48 h Average ([2]; Run 2, 0.1 μg/ml CDDP): 1.83
SRB 72 h Average ([2]; Run 2, 0.1 μg/ml CDDP): 2.1
SRB 24 h Average ([2]; Run 2, 1 μg/ml CDDP): 1.27
SRB 48 h Average ([2]; Run 2, 1 μg/ml CDDP): 1.162
SRB 72 h Average ([2]; Run 2, 1 μg/ml CDDP): 0.883
SRB 24 h Average ([2]; Run 2, 10 μg/ml CDDP): 1.598
SRB 48 h Average ([2]; Run 2, 10 μg/ml CDDP): 1.867
SRB 72 h Average ([2]; Run 2, 10 μg/ml CDDP): 1.755
SRB 24 h Average ([2]; Run 2, 100 μg/ml CDDP): 1.509
SRB 48 h Average ([2]; Run 2, 100 μg/ml CDDP): 1.048
SRB 72 h Average ([2]; Run 2, 100 μg/ml CDDP): 1.004
SRB 24 h ([2]; 0.1 μg/ml CDDP): 2.643
SRB 48 h ([2]; 0.1 μg/ml CDDP): 2.742
SRB 72 h ([2]; 0.1 μg/ml CDDP): 2.87
SRB 24 h ([2]; 1 μg/ml CDDP): 1.382
SRB 48 h ([2]; 1 μg/ml CDDP): 1.537
SRB 72 h ([2]; 1 μg/ml CDDP): 2.07
SRB 24 h ([2]; 10 μg/ml CDDP): 2.134
SRB 48 h ([2]; 10 μg/ml CDDP): 2.364
SRB 72 h ([2]; 10 μg/ml CDDP): 2.593
SRB 24 h ([2]; 100 μg/ml CDDP): 1.141
SRB 48 h ([2]; 100 μg/ml CDDP): 1.464
SRB 72 h ([2]; 100 μg/ml CDDP): 1.493
